Laboratory results reported in publication PMC5917001, “Counter-ion effect on antistaphylococcal activity and cytotoxicity of selected antimicrobial peptides” (Amino Acids, 2018).
Where no end group is shown, it is not given here.

Legend:
[1] = tested on: S. aureus (29): reference (5) and clinical (24) strains; settings: for Mean value of MIC: mean over 29 S. aureus strains (Table 5); for Mean MIC values: mean over 29 S. aureus strains, as repeated in Table 6
Protocol: Microbiological assays were performed using reference and clinical strains of Staphylococcus aureus. Minimal inhibitory concentrations (MIC) were determined by broth microdilution method on 96-well polystyrene plates according to Clinical and Laboratory Standards Institute (CLSI) recommendations [Clinical and Laboratory Standards Institute (CLSI) [2012]]. […] All plates were incubated for 18 h at 37 °C. […] Reference strains of S. aureus: ATCC 6538, ATCC 6538/P, ATCC 9144, ATCC 12598, and ATCC 25923 were obtained from the Polish Collection of Microorganisms (PCM, Polish Academy of Sciences, Wrocław), whereas 24 clinical strains were isolated from the patients of the Clinic of Dermatology, Venereology and Allergology (Medical University of Gdańsk). Nine strains were characterized as methicillin-resistant (MRSA). Preliminary identification and detection was conducted on the ChromID MRSA/ChromID S. aureus biplate (bioMérieux) for the simultaneous detection of S. aureus and methicillin-resistant S. aureus (MRSA). All experiments were conducted at least in triplicate.
To asses an overall activity of peptides, the mean MIC values were calculated.

S. aureus ATCC 25923 = format: cell-based, Staphylococcus aureus; settings: ATCC 25923, reference strain; broth microdilution, 0.5 × 10^5 CFU/mL, 18 h, 37 °C, at least triplicate
Protocol: (§1) Microbiological assays were performed using reference and clinical strains of Staphylococcus aureus. Minimal inhibitory concentrations (MIC) were determined by broth microdilution method on 96-well polystyrene plates according to Clinical and Laboratory Standards Institute (CLSI) recommendations [Clinical and Laboratory Standards Institute (CLSI) [2012]]. For this purpose, the initial inoculums of 0.5 × 10^5 CFU/mL of bacteria were exposed to a range of concentrations of the peptides (0.5–256 µg/mL). All plates were incubated for 18 h at 37 °C. MIC was taken as the lowest concentration of the compound at which the growth of bacteria was not observed. Reference strains of S. aureus: ATCC 6538, ATCC 6538/P, ATCC 9144, ATCC 12598, and ATCC 25923 were obtained from the Polish Collection of Microorganisms (PCM, Polish Academy of Sciences, Wrocław), whereas 24 clinical strains were isolated from the patients of the Clinic of Dermatology, Venereology and Allergology (Medical University of Gdańsk). Nine strains were characterized as methicillin-resistant (MRSA). Preliminary identification and detection was conducted on the ChromID MRSA/ChromID S. aureus biplate (bioMérieux) for the simultaneous detection of S. aureus and methicillin-resistant S. aureus (MRSA). All experiments were conducted at least in triplicate.

S. aureus 030N = format: cell-based, Staphylococcus aureus; settings: clinical strain, broth microdilution, 0.5 × 10^5 CFU/mL, 18 h, 37 °C, at least triplicate
Protocol: as §1

S. aureus K50S = format: cell-based, Staphylococcus aureus; settings: clinical strain, broth microdilution, 0.5 × 10^5 CFU/mL, 18 h, 37 °C, at least triplicate
Protocol: as §1

S. aureus 051N (MRSA) = format: cell-based, Staphylococcus aureus; settings: clinical strain, broth microdilution, 0.5 × 10^5 CFU/mL, 18 h, 37 °C, at least triplicate
Protocol: as §1

S. aureus 045N = format: cell-based, Staphylococcus aureus; settings: clinical strain, broth microdilution, 0.5 × 10^5 CFU/mL, 18 h, 37 °C, at least triplicate
Protocol: as §1

S. aureus 005S = format: cell-based, Staphylococcus aureus; settings: clinical strain, broth microdilution, 0.5 × 10^5 CFU/mL, 18 h, 37 °C, at least triplicate
Protocol: as §1

S. aureus ATCC 9144 = format: cell-based, Staphylococcus aureus; settings: ATCC 9144, reference strain; broth microdilution, 0.5 × 10^5 CFU/mL, 18 h, 37 °C, at least triplicate
Protocol: as §1

S. aureus 004N (MRSA) = format: cell-based, Staphylococcus aureus; settings: clinical strain, broth microdilution, 0.5 × 10^5 CFU/mL, 18 h, 37 °C, at least triplicate
Protocol: as §1

S. aureus 060S = format: cell-based, Staphylococcus aureus; settings: clinical strain, broth microdilution, 0.5 × 10^5 CFU/mL, 18 h, 37 °C, at least triplicate
Protocol: as §1

S. aureus K46N = format: cell-based, Staphylococcus aureus; settings: clinical strain, broth microdilution, 0.5 × 10^5 CFU/mL, 18 h, 37 °C, at least triplicate
Protocol: as §1

S. aureus 013S = format: cell-based, Staphylococcus aureus; settings: clinical strain, broth microdilution, 0.5 × 10^5 CFU/mL, 18 h, 37 °C, at least triplicate
Protocol: as §1

S. aureus 048S = format: cell-based, Staphylococcus aureus; settings: clinical strain, broth microdilution, 0.5 × 10^5 CFU/mL, 18 h, 37 °C, at least triplicate
Protocol: as §1

S. aureus ATCC 6538/P = format: cell-based, Staphylococcus aureus; settings: reference strain, broth microdilution, 0.5 × 10^5 CFU/mL, 18 h, 37 °C, at least triplicate
Protocol: as §1

S. aureus 017N (MRSA) = format: cell-based, Staphylococcus aureus; settings: clinical strain, broth microdilution, 0.5 × 10^5 CFU/mL, 18 h, 37 °C, at least triplicate
Protocol: as §1

S. aureus 053N = format: cell-based, Staphylococcus aureus; settings: clinical strain, broth microdilution, 0.5 × 10^5 CFU/mL, 18 h, 37 °C, at least triplicate
Protocol: as §1

S. aureus 017S (MRSA) = format: cell-based, Staphylococcus aureus; settings: clinical strain, broth microdilution, 0.5 × 10^5 CFU/mL, 18 h, 37 °C, at least triplicate
Protocol: as §1

S. aureus 002S = format: cell-based, Staphylococcus aureus; settings: clinical strain, broth microdilution, 0.5 × 10^5 CFU/mL, 18 h, 37 °C, at least triplicate
Protocol: as §1

S. aureus 001N (MRSA) = format: cell-based, Staphylococcus aureus; settings: clinical strain, broth microdilution, 0.5 × 10^5 CFU/mL, 18 h, 37 °C, at least triplicate
Protocol: as §1

S. aureus 051S = format: cell-based, Staphylococcus aureus; settings: clinical strain, broth microdilution, 0.5 × 10^5 CFU/mL, 18 h, 37 °C, at least triplicate
Protocol: as §1

S. aureus 033N = format: cell-based, Staphylococcus aureus; settings: clinical strain, broth microdilution, 0.5 × 10^5 CFU/mL, 18 h, 37 °C, at least triplicate
Protocol: as §1

S. aureus 015N (MRSA) = format: cell-based, Staphylococcus aureus; settings: clinical strain, broth microdilution, 0.5 × 10^5 CFU/mL, 18 h, 37 °C, at least triplicate
Protocol: as §1

S. aureus 024N (MRSA) = format: cell-based, Staphylococcus aureus; settings: clinical strain, broth microdilution, 0.5 × 10^5 CFU/mL, 18 h, 37 °C, at least triplicate
Protocol: as §1

S. aureus 001S (MRSA) = format: cell-based, Staphylococcus aureus; settings: clinical strain, broth microdilution, 0.5 × 10^5 CFU/mL, 18 h, 37 °C, at least triplicate
Protocol: as §1

S. aureus 039N = format: cell-based, Staphylococcus aureus; settings: clinical strain, broth microdilution, 0.5 × 10^5 CFU/mL, 18 h, 37 °C, at least triplicate
Protocol: as §1

S. aureus 002N = format: cell-based, Staphylococcus aureus; settings: clinical strain, broth microdilution, 0.5 × 10^5 CFU/mL, 18 h, 37 °C, at least triplicate
Protocol: as §1

S. aureus ATCC 6538 = format: cell-based, Staphylococcus aureus; settings: ATCC 6538, reference strain; broth microdilution, 0.5 × 10^5 CFU/mL, 18 h, 37 °C, at least triplicate
Protocol: as §1

S. aureus ATCC 12598 = format: cell-based, Staphylococcus aureus; settings: ATCC 12598, reference strain; broth microdilution, 0.5 × 10^5 CFU/mL, 18 h, 37 °C, at least triplicate
Protocol: as §1

S. aureus 043SC (MRSA) = format: cell-based, Staphylococcus aureus; settings: clinical strain, broth microdilution, 0.5 × 10^5 CFU/mL, 18 h, 37 °C, at least triplicate
Protocol: as §1

S. aureus K19N = format: cell-based, Staphylococcus aureus; settings: clinical strain, broth microdilution, 0.5 × 10^5 CFU/mL, 18 h, 37 °C, at least triplicate
Protocol: as §1

| Substance | Mean value of MIC [1] | Mean MIC values [1] | MIC (S. aureus ATCC 25923) | MIC (S. aureus 030N) | MIC (S. aureus K50S) | MIC (S. aureus 051N (MRSA)) | MIC (S. aureus 045N) | MIC (S. aureus 005S) | MIC (S. aureus ATCC 9144) | MIC (S. aureus 004N (MRSA)) | MIC (S. aureus 060S) | MIC (S. aureus K46N) | MIC (S. aureus 013S) | MIC (S. aureus 048S) | MIC (S. aureus ATCC 6538/P) | MIC (S. aureus 017N (MRSA)) | MIC (S. aureus 053N) | MIC (S. aureus 017S (MRSA)) | MIC (S. aureus 002S) | MIC (S. aureus 001N (MRSA)) | other results |
| --- | --- | --- | --- | --- | --- | --- | --- | --- | --- | --- | --- | --- | --- | --- | --- | --- | --- | --- | --- | --- | --- |
| GLFDVIKKVASVIGGL-NH2 [Citropin 1.1 TFA^−] | 13.0 µg/mL | 13.0 µg/mL | 32 µg/mL | 16 µg/mL | 2 µg/mL | 8 µg/mL | 16 µg/mL | 2 µg/mL | 32 µg/mL | 16 µg/mL | 2 µg/mL | 16 µg/mL | 2 µg/mL | 16 µg/mL | 16 µg/mL | 8 µg/mL | 16 µg/mL | 4 µg/mL | 16 µg/mL | 16 µg/mL | MIC (S. aureus 051S): 4 µg/mL; MIC (S. aureus 033N): 16 µg/mL; MIC (S. aureus 015N (MRSA)): 16 µg/mL; MIC (S. aureus 024N (MRSA)): 2 µg/mL; MIC (S. aureus 001S (MRSA)): 16 µg/mL; MIC (S. aureus 039N): 16 µg/mL; MIC (S. aureus 002N): 16 µg/mL; MIC (S. aureus ATCC 6538): 16 µg/mL; MIC (S. aureus ATCC 12598): 16 µg/mL; MIC (S. aureus 043SC (MRSA)): 8 µg/mL; MIC (S. aureus K19N): 16 µg/mL |
| KWKLFKKIGAVLKVL-NH2 [CAMEL AcO^−] | ≤ 2.8 µg/mL | ≤ 2.8 µg/mL | 8 µg/mL | 4 µg/mL | 1 µg/mL | 2 µg/mL | 4 µg/mL | ≤ (≤ alone stands for MIC ≤ 0.25 µg/mL) | 2 µg/mL | 4 µg/mL | 1 µg/mL | 4 µg/mL | ≤ (≤ alone stands for MIC ≤ 0.25 µg/mL) | 4 µg/mL | 1 µg/mL | 2 µg/mL | 4 µg/mL | 2 µg/mL | 4 µg/mL | 2 µg/mL | MIC (S. aureus 051S): 2 µg/mL; MIC (S. aureus 033N): 4 µg/mL; MIC (S. aureus 015N (MRSA)): 4 µg/mL; MIC (S. aureus 024N (MRSA)): ≤ (≤ alone stands for MIC ≤ 0.25 µg/mL); MIC (S. aureus 001S (MRSA)): 4 µg/mL; MIC (S. aureus 039N): 4 µg/mL; MIC (S. aureus 002N): 4 µg/mL; MIC (S. aureus ATCC 6538): ≤ (≤ alone stands for MIC ≤ 0.25 µg/mL); MIC (S. aureus ATCC 12598): 2 µg/mL; MIC (S. aureus 043SC (MRSA)): 4 µg/mL; MIC (S. aureus K19N): 2 µg/mL |
| KWKLFKKIGAVLKVL-NH2 [CAMEL Cl^−] | ≤ 2.0 µg/mL | ≤ 2.0 µg/mL | 2 µg/mL | 4 µg/mL | 1 µg/mL | 2 µg/mL | 4 µg/mL | ≤ (≤ alone stands for MIC ≤ 0.25 µg/mL) | 1 µg/mL | 2 µg/mL | 1 µg/mL | 4 µg/mL | ≤ (≤ alone stands for MIC ≤ 0.25 µg/mL) | 4 µg/mL | 1 µg/mL | 2 µg/mL | 4 µg/mL | 2 µg/mL | 1 µg/mL | 2 µg/mL | MIC (S. aureus 051S): 2 µg/mL; MIC (S. aureus 033N): 4 µg/mL; MIC (S. aureus 015N (MRSA)): 2 µg/mL; MIC (S. aureus 024N (MRSA)): ≤ (≤ alone stands for MIC ≤ 0.25 µg/mL); MIC (S. aureus 001S (MRSA)): 2 µg/mL; MIC (S. aureus 039N): 4 µg/mL; MIC (S. aureus 002N): ≤ (≤ alone stands for MIC ≤ 0.25 µg/mL); MIC (S. aureus ATCC 6538): ≤ (≤ alone stands for MIC ≤ 0.25 µg/mL); MIC (S. aureus ATCC 12598): 1 µg/mL; MIC (S. aureus 043SC (MRSA)): 4 µg/mL; MIC (S. aureus K19N): 1 µg/mL |
